Data reported in patent US20190336579A1, “COMPOSITIONS AND METHODS TO INDUCE TARGETED APOPTOSIS BY MODULATING PROTEIN TYROSINE PHOSPHATASE 13 (PTPN13)” (National Jewish Health, priority 2010, published 2019).

What was measured:
PTPN13 mRNA = PTPN13 mRNA expression by quantitative PCR in lung fibroblasts; type: cell-based, human; conditions: NHLF, FHLF and MRC5 cells; TNF-α 10 ng/ml, IFN-γ 50 U/ml; 6 hours; compared to untreated cells
Protocol: (§1) To assess the effects of these cytokines on PTPN13 expression, non-diseased normal human lung fibroblasts (NHLF), fibrotic human lung fibroblasts (FHLF) and a fetal lung fibroblast cell line, MRC5 cells, were treated with TNF-α (10/ng/ml), IFN-γ (50 U/ml) or with both cytokines for 6 hours. PTPN13 expression was measured by quantitative PCR (FIG. 2A). The primary lung fibroblasts from normal and fibrotic lung had equivalent levels of PTPN13 expression to the MRC5 lung fibroblast cell line. […] Treatment with TNF-α alone caused a 40% decrease in PTPN13 expression. Combined exposure to TNF-α and IFN-γ decreased PTPN13 mRNA expression by 80%. Protein lysates from normal, fibrotic and MRC5 fibroblasts treated for 36 hours with TNF-α (10/ng/ml), IFN-γ (50 U/ml) or with both cytokines were then analyzed for PTPN13 expression. […]
FIG. 2: TNF-α and IFN-γ decrease PTPN13 expression. […] Top panel is a quantitative RT-PCR analysis of PTPN13 mRNA lower panel is a Western blot analysis for PTPN13 protein. […] Caspase-8 was measured using a fluorescence based assay.
Total RNA was obtained from 1×10^6 MRC5 cells using the Qiagen RNA Miniprep Kit (Qiagen) following the manufacturer's instructions. […] The fluorescence values of the threshold cycles were collected and normalized to GAPDH. Data are expressed as the relative change in mRNA expression compared to the untreated control.

PTPN13 protein = PTPN13 protein expression by Western blot in lung fibroblasts; type: cell-based, human; conditions: normal, fibrotic and MRC5 fibroblasts; TNF-α 10 ng/ml, IFN-γ 50 U/ml; 36 hours
Protocol: as §1
In one exemplary method, to assess whether PTPN13 expression prevents Fas-induced apoptosis, PTPN13 expression was knocked-down using siRNA. […] Apoptosis was assayed by quantifying activation of caspase-3 and caspase-8 (FIG. 3C).
FIG. 3: Decreased PTPN13 expression sensitizes fibroblasts to Fas-induced apoptosis. […] PTPN13 expression was quantified by western blot analysis and densitometry was performed. […] Fas activating antibody (250 ng/ml) (Fas activating antibody) or PBS (unstimulated) was added for 2 hours before analyzing Caspase-8 activation by a fluorescence-based assay. […]

[1] = Bleomycin murine model of fibrosis, mortality; type: in vivo, mice; conditions: 2.5 U/kg bleomycin into the trachea
Protocol: To assess the effect of PTPN13 on development of fibrosis in vivo, we used a murine model of fibrosis in a PTPN13−/− mouse. The PTPN13−/− mouse has been characterized by Grusby to have abnormal STAT4 signaling which leads to augmented skewing toward TH1 or TH2 phenotypes. 2.5 U/kg bleomycin was administered directly into the tracheas of PTPN13−/− mice along with wildtype controls. […] Due to drastic weight decreases in the wildtype mice, two weeks was chosen as the end time point. […] Of the 20 wildtype mice treated with bleomycin, 11 (55%) died before two weeks as compared to the PTPN13−/− mice where three of the 20 (15%) died. Saline had no effect on mortality. Then static compliance was measured. […] Collagen content was measured in the lung using a hydroxyproline assay. […] To determine a possible cause for the decreased static compliance in the PTPN13−/− mice, we also measured other markers of lung disease, such as cellular infiltration and capillary leak. We measured the cellularity of the bronchoalveolar fluid (BALF). […] Capillary leak was determined by albumin present in the BALF (FIG. 6F). […] To validate these findings, stereology was performed on lung sections to quantify presence of collagen and diseased areas. […] Percentage of diseased lung was also measured by stereology. […]
FIG. 6: Deficiency of PTPN13−/− Leads to Decreased Bleomycin-induced Lung Fibrosis. […] Collagen content as measured by stereology. […]

Substance | decrease in PTPN13 mRNA expression (PTPN13 mRNA) | PTPN13 protein expression (Western blot) (PTPN13 protein) | mortality before two weeks ([1]; PTPN13−/− mice, three of 20 died) [%] | mortality before two weeks ([1]; wildtype mice, 11 of 20 died) [%]
IFN-γ: Recombinant human IFN-γ purchased from R&D Systems | minimal decrease | not decreased | – | –
TNF-α | 40% | decreased | – | –
bleomycin | – | – | 15 | 55
